Reference: patent US4816247A, “Emulsion compositions for administration of sparingly water soluble ionizable hydrophobic drugs” (American Cyanamid Company, priority 1985, dated 1989)
Values after ≈ are worked out from the molar mass of the structure shown. “Also recorded” adds a separate entry of the source. Structures can show the parent of a compound that is named as a salt.

What was measured:
[1] = commercial product solution; cited from earlier work
soft tissues / vein = conditions: cited from earlier work
[2] = assay type: physicochemical
Description: (§1) Because the antiarthritic triazine compound is a base, organic acids as counter-ions were studied to improve drug solubility. […] Additional drug complexes were prepared with various organic and inorganic acids. […] The inherent insolubility of the drug appears to be responsible, to some extent, for the preceding results. In order to overcome the drug insolubility problem one of the objectives considered was to design a dosage form which would improve drug absorption when given by intravenous, intramuscular or intra-articular injection.

[3] = Absorption and excretion of antiarthritic triazine compound, candidate dosage forms; conditions: in vivo
Description: as §1

white blood cell counts = test: Group mean white blood cell counts, repeated intravenous infusion in dogs; assay type: in vivo; conditions: dog
Description: A comparison study of the group mean white blood cell counts (WBC×10^-3) was conducted separately for both the male and female animals in each group. The WBC counts of all animals were performed 7 days before dosing. Doses were administered on days 0, 21 and 42, whereas additional WBC counts on all animals were made on days 3, 7, 14, 20, 24, 28, 35, 41, 45, 49 and 56. The mean data from this test are recorded in Table VI and the group mean white blood cell counts for males and females are plotted separately in FIGS. 6 and 7 respectively.

[4] = tested on: marginal ear vein of rabbits; test: Peripheral vein irritation, intravenous infusion in marginal ear vein of rabbits, gross postmortem findings; assay type: in vivo, rabbit; design: key to External: Reddened / External: Yellow Deposit / Subcutaneous: Hemorrhage / Vascular Lumen: Yellow Deposit / External: Swollen / Subcutaneous: Edema / Subcutaneous: Yellow Deposit / Vascular Lumen: Blood Clot: +: Positive or present.; -: Negative or absent
Description: (§2) The emulsin drug delivery system formulation of Emulsion 3 in Table III was tested in two species of animals, for peripheral vein irritation in order to determine the occurrence of local injection site adverse reactions. Also tested was a 1.0 mg/ml solution of bisantrene hydrochloride in 5% dextrose/water and a composition of the Emulsion 3 vehicle without bisantrene base. The two species of animals used were rabbits and dogs. The formulations were given intravenously in a peripheral vein using a Butterfly infusion set (Becton, Dickinson Co., Inc., Rutherford, N.J). The marginal ear vein was used in the rabbit and the saphenous or the cephalic vein of the leg was used in the dog.
(§3) The formulations were given below by slow intravenous infusion using a Sage syringe pump (Sage Instruments, Orion Research Inc., Cambridge, Ma.) over a 2 hour period. The animals were restrained but unanesthetized during the infusion. After the infusion, the animals were returned to their cages and offered food. The animals were sacrificed one day after the infusion.
(§4) At sacrifice, the infused vein was opened from the point of infusion and cardiad for several centimeters. […] FIGS. 3, 4 and 5 are comprised of representative photographs of the opened peripheral veins of dogs as hereinabove described and verify the findings stated above.

peripheral vein of dogs = test: Peripheral vein irritation, intravenous infusion in peripheral vein of dogs, gross postmortem findings; assay type: in vivo, dog
Description: as §2, §3, §4

dogs = test: Clinical signs and injection site findings, repeated intravenous infusion in dogs; conditions: dog
[5] = Solubility of bisantrene base and its oleate ion-pair in water, oils and emulsions; assay type: physicochemical; conditions: in words
Source text: Bisantrene base is insoluble in water, oils, oil phase of emulsions or preformed commercial, nutritional emulsions such as Intralipid® and Liposyn®. When Bisantrene base forms an ion-pair with oleic acid the solubility of Bisantrene increases in oils or oil phases of emulsions. Additionally, Bisantrene-oleate ion-pair acts as a surfactant, becomes part of an interfacial emulsion film and stabilizes the emulsion in vitro.

[6] = Solubility of bisantrene in selected media and biological fluids (Table IB, FIGS. 1 and 2); assay type: physicochemical; conditions: in words
Source text: (§5) In serum and plasma, however due to increase in the pH the solubility drops considerably and this may be the reason that the drug precipitates at the point of infusion. […] Thus, if the drug can be kept in solution long enough to allow complete dilution in the entire blood volume, then the partitioning should take place without the intermediate precipitation.

erythrocytes = test: Partitioning of bisantrene in blood; assay type: in vitro ADME; conditions: in words
Source text: as §5

plasma protein = conditions: cited from earlier work
[7] = rabbit, female, 2 h i.v. infusion
[8] = rabbit, male, 2 h i.v. infusion

## CC(C)NCC(O)COc1cccc2ccccc12 (racemic) [Inderal, propanolol]
[1]
  Ambient Solution pH: 3.50

## COc1cccc2c1C(=O)c1c(O)c3c(c(O)c1C2=O)C[C@@](O)(C(=O)CO)C[C@@H]3O[C@H]1C[C@H](N)[C@H](O)[C@H](C)O1 [Adriamycin, Doxorubicin]
Soft tissues / vein; intravenous administration in cancer therapy
  effect of extravasation into the soft tissues: massive tissue necrosis about the site of the attempted intravenous administration

## CC(C)(C)C(C)(C)Nc1nc(NC(C)(C)C(C)(C)C)nc(N2CC3CCC(CC3)C2)n1 [Antiarthritic Triazine Compound, 3-[4,6-bis[(1,1-2,2-tetramethylpropyl)amino]-s-triazin-2-yl]-3-azabicyclo[3.2.2]nonane]
[2]
  Solubility: 300 µg/mL (≈ 697 µM)
  increase of solubility not more than: 500 to 1000 µg/mL
  solubility in water: insignificant solubility in water
[3]
  parenteral absorption of the drug: negligible
[3]; po
  oral absorption: slightly better

## C[C@H](N)[C@H](O)c1cccc(O)c1 [Aramine, metaraminol]
[1]
  Ambient Solution pH: 3.60

## OCCOCCN1CCN(C(c2ccccc2)c2ccc(Cl)cc2)CC1 (centres unmarked) [Atarax, hydroxyzine]
[1]
  Ambient Solution pH: 5.60

## C(=N\NC1=NCCN1)/c1c2ccccc2c(/C=N/NC2=NCCN2)c2ccccc12 [Bisantrene HCl]
White blood cell counts; female, day 3, 10 mg/kg i.v. on days 0, 21, 42
  group mean white blood cell count: 6.3 WBC × 10^-3
White blood cell counts; female, day 7, 10 mg/kg i.v. on days 0, 21, 42
  group mean white blood cell count: 4.5 WBC × 10^-3
White blood cell counts; female, day 14, 10 mg/kg i.v. on days 0, 21, 42
  group mean white blood cell count: 8.6 WBC × 10^-3
White blood cell counts; female, day 20, 10 mg/kg i.v. on days 0, 21, 42
  group mean white blood cell count: 10.5 WBC × 10^-3
White blood cell counts; female, day 24, 10 mg/kg i.v. on days 0, 21, 42
  group mean white blood cell count: 5.1 WBC × 10^-3
White blood cell counts; female, day 28, 10 mg/kg i.v. on days 0, 21, 42
  group mean white blood cell count: 4.1 WBC × 10^-3
White blood cell counts; female, day 35, 10 mg/kg i.v. on days 0, 21, 42
  group mean white blood cell count: 13.0 WBC × 10^-3
White blood cell counts; female, day 41, 10 mg/kg i.v. on days 0, 21, 42
  group mean white blood cell count: 9.7 WBC × 10^-3
White blood cell counts; female, day 45, 10 mg/kg i.v. on days 0, 21, 42
  group mean white blood cell count: 5.1 WBC × 10^-3
White blood cell counts; female, day 49, 10 mg/kg i.v. on days 0, 21, 42
  group mean white blood cell count: 6.0 WBC × 10^-3
White blood cell counts; female, day 56, 10 mg/kg i.v. on days 0, 21, 42
  group mean white blood cell count: 13.2 WBC × 10^-3
White blood cell counts; female, day -7 (before dosing)
  group mean white blood cell count: 10.1 WBC × 10^-3
White blood cell counts; male, day 3, 10 mg/kg i.v. on days 0, 21, 42
  group mean white blood cell count: 7.0 WBC × 10^-3
White blood cell counts; male, day 7, 10 mg/kg i.v. on days 0, 21, 42
  group mean white blood cell count: 3.7 WBC × 10^-3
White blood cell counts; male, day 14, 10 mg/kg i.v. on days 0, 21, 42
  group mean white blood cell count: 11.1 WBC × 10^-3
White blood cell counts; male, day 20, 10 mg/kg i.v. on days 0, 21, 42
  group mean white blood cell count: 10.8 WBC × 10^-3
White blood cell counts; male, day 24, 10 mg/kg i.v. on days 0, 21, 42
  group mean white blood cell count: 5.1 WBC × 10^-3
White blood cell counts; male, day 28, 10 mg/kg i.v. on days 0, 21, 42
  group mean white blood cell count: 2.9 WBC × 10^-3
White blood cell counts; male, day 35, 10 mg/kg i.v. on days 0, 21, 42
  group mean white blood cell count: 13.5 WBC × 10^-3
White blood cell counts; male, day 41, 10 mg/kg i.v. on days 0, 21, 42
  group mean white blood cell count: 11.3 WBC × 10^-3
White blood cell counts; male, day 45, 10 mg/kg i.v. on days 0, 21, 42
  group mean white blood cell count: 5.3 WBC × 10^-3
White blood cell counts; male, day 49, 10 mg/kg i.v. on days 0, 21, 42
  group mean white blood cell count: 3.3 WBC × 10^-3
White blood cell counts; male, day 56, 10 mg/kg i.v. on days 0, 21, 42
  group mean white blood cell count: 12.8 WBC × 10^-3
White blood cell counts; male, day -7 (before dosing)
  group mean white blood cell count: 11.3 WBC × 10^-3
[4]; marginal ear vein of rabbits
  yellow or yellow-orange deposits in vascular-lumen: yellow or yellow-orange deposits which result
[4]; [7]
  External: Reddened: +
  External: Yellow Deposit: +
  Subcutaneous: Hemorrhage: -
  Vascular Lumen: Yellow Deposit: +
[4]; [8]
  External: Reddened: -
  External: Swollen: -
  External: Yellow Deposit: -
  Subcutaneous: Edema: +
  Subcutaneous: Hemorrhage: -
  Subcutaneous: Yellow Deposit: -
  Vascular Lumen: Blood Clot: -
  Vascular Lumen: Yellow Deposit: +
Peripheral vein of dogs; FIGS. 3A, 3B, 4A, 5A, listed as bisantrene hydrochloride
  yellow-orange deposit in vascular-lumen, photograph of dog vein: clearly shows the yellow-orange deposits in the vascular-lumen
Peripheral vein of dogs; peripheral vein of dogs
  yellow or yellow-orange deposits in vascular-lumen: yellow or yellow-orange deposits which result
dogs; 10 mg/kg, about 2 h infusion
  clinical signs during the intravenous infusion: none was apparent
  swelling of the infused leg: three
dogs; conclusion of study
  local injection site deposits or binding of the drug, inflammation and phlebitis: present

## C(=N\NC1=NCCN1)/c1c2ccccc2c(/C=N/NC2=NCCN2)c2ccccc12 [Bisantrene, bis(2-imidazolin-2-ylhydrazone)-9,10-anthracenedicarboxaldehyde]
[5]
  solubility in water, oils, oil phase of emulsions or preformed commercial nutritional emulsions: insoluble
[6]; compared with plasma and serum
  solubility in whole blood: much greater than in plasma and serum
[6]
  solubility characteristics of bisantrene: very sensitive to temperature changes, pH, and various solutes; also recorded: quite soluble in media useful as candidates for I.V. infusions such as normal saline and 5% dextrose
erythrocytes
  partitioning in blood: eventually partitions into the erythrocytes which then serve as slow release carriers

## C(=NNC1=NCCN1)c1c2ccccc2c(C=NNC2=NCCN2)c2ccccc12 [Bisantrene-oleate ion-pair]
[5]; ion-pair with oleic acid
  solubility in oils or oil phases of emulsions: increases

## CC(=O)Nc1ccc(OCC(O)CNC(C)C)cc1 (centres unmarked) [Eraldin, practolol]
[1]
  Ambient Solution pH: 5.80

## C(=N\NC1=NCCN1)/c1c2ccccc2c(/C=N/NC2=NCCN2)c2ccccc12 [bisantrene dihydrochloride]
Soft tissues / vein; aqueous solution i.v. in mammals
  problem likely to occur on intravenous injection: chemical phlebitis

## CCCCCCCC/C=C\CCCCCCCC(=O)O [oleic acid]
Plasma protein
  molecules bound with one molecule of typical plasma protein: nine
